The text below walks through data of ChEMBL document CHEMBL1201862, “PubChem BioAssay data set” (2004).

Test in all cases: growth of human tumour cells (NCI), 48 h
Experiment [1] concerns BT-549.
Experiment [2] has as its system DU-145.
The test system of experiment [3] is EKVX.
Experiment [4] concerns HL-60.
Experiment [5] has as its system HOP-62.
For experiment [6], the system named is IGROV-1.
For experiment [7], the system named is MDA-MB-231.
The test system of experiment [8] is MDA-N.
The subject of experiment [9] is Malme-3M.
The test system of experiment [10] is NCI/ADR-RES.
Experiment [11] deals with RPMI-8226.
Experiment [12] deals with SF-539.
The subject of experiment [13] is SN12C.
The test system of experiment [14] is UACC-62.
Experiment [15] concerns HCC 2998.
Experiment [16] deals with HOP-92.
The subject of experiment [17] is NCI-H23.
Experiment [18] relates to SNB-75.
The subject of experiment [19] is NCI-H522.

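96-well plates; 48 h exposure; 5 concentrations. Endpoints by linear interpolation between flanking doses. Not reached: highest tested concentration assigned. GI50: concentration for 50% inhibition of growth.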 Active and inactive are the calls of the source. Rule as the data show it: active = GI50 up to about 1.1 µM and inactive = higher. Some results are limits rather than exact numbers.

Regarding `COc1nc2ncc([C@@H](OC(C)=O)[C@@H](COC(C)=O)OC(C)=O)nc2c(=O)[nH]1`, the GI50 in [1], in experiment [2], in [3], in experiment [4], in experiment [5] and in experiment [6] was > 100 µM (inactive) in each case. Also, the GI50 in experiment [7], in experiment [8], in experiment [9], in [10], in experiment [11] and in experiment [12] was > 100 µM (inactive) each time. For the same molecule, the GI50 in [13] and in [14] was > 100 µM (inactive) throughout.

Take `N#C/C(C(=O)Nc1ccccc1)=C(/N)N1CCCCC1`: the GI50 in [1] was > 100 µM (inactive); in experiment [2] it was > 100 µM (inactive); in [3], 98.4 µM (inactive); in [15] it was > 100 µM (inactive); in experiment [5], > 100 µM (inactive); in experiment [16], > 100 µM (inactive). Further, the GI50 in [6] is 91 µM (inactive); in experiment [8], > 100 µM (inactive); in [17] it was > 100 µM (inactive); in [10], > 100 µM (inactive); in experiment [11] it was > 100 µM (inactive); in experiment [12], > 100 µM (inactive). Besides, the GI50 in [13] is > 100 µM (inactive); in experiment [18], > 100 µM (inactive); in [14], 95.7 µM (inactive).

In the case of `Cc1nn(-c2ccccc2)c(C)c1/C=N/N=C1\SCC(=O)N1c1ccccc1`, the GI50 was 22 µM (inactive) in experiment [1]; 31.8 µM (inactive) in experiment [2]; 12.4 µM (inactive) in experiment [3]; 20.3 µM (inactive) in experiment [15]; 30.8 µM (inactive) in [4]; 37.9 µM (inactive) in experiment [5]. In addition, the GI50 in experiment [6] is 32.3 µM (inactive); in [7] it was 35 µM (inactive); in experiment [8] it was 20.9 µM (inactive); in experiment [9], 21.2 µM (inactive); in experiment [17], 27.5 µM (inactive); in [10], 18.5 µM (inactive). Moreover, the GI50 in [11] was 13.4 µM (inactive); in experiment [12], 22.9 µM (inactive); in experiment [13], 44.7 µM (inactive); in [18], 20.4 µM (inactive); in experiment [14], 21.4 µM (inactive).

As to `Nc1nc2cc(CNc3ccc(C(=O)O)cc3)ccc2nc1-c1ccccc1`, the GI50 in experiment [1] is > 100 µM (inactive); in [2], 44.6 µM (inactive); in experiment [15], > 100 µM (inactive); in experiment [4], > 100 µM (inactive); in experiment [5], > 100 µM (inactive); in [6], > 100 µM (inactive). Besides, the GI50 in experiment [7] was > 100 µM (inactive); in experiment [8], > 100 µM (inactive); in [9] it was > 100 µM (inactive); in experiment [17] it was 88.7 µM (inactive); in experiment [19] it was > 100 µM (inactive); in experiment [10] it was > 100 µM (inactive). The GI50 in [11] was > 100 µM (inactive); in experiment [12], 74.5 µM (inactive); in experiment [13], > 100 µM (inactive); in experiment [18] it was 66.5 µM (inactive); in experiment [14], > 10 µM (inactive).

On to `O=C(NNC(=O)c1c(Cl)c(Cl)c(Cl)c(Cl)c1-c1nc2ccccc2[nH]1)c1ccc(Cl)cc1`, for which the GI50 in experiment [1] was 46.1 µM (inactive); in experiment [2], 42.5 µM (inactive); in experiment [3], 44.2 µM (inactive); in experiment [4], 36.1 µM (inactive); in experiment [5], 61.9 µM (inactive); in experiment [16], 24.6 µM (inactive). The GI50 was 17.5 µM (inactive) in [6]; 21.3 µM (inactive) in experiment [8]; 89.3 µM (inactive) in experiment [9]; 40.6 µM (inactive) in experiment [17]; 49.8 µM (inactive) in [19]; 32.9 µM (inactive) in experiment [10]. In addition, the GI50 in [11] is 33 µM (inactive); in [12], 47.4 µM (inactive); in experiment [13], 37.7 µM (inactive); in experiment [18], 38.5 µM (inactive); in experiment [14] it was 56.4 µM (inactive).

As to `COc1ccc(/C=C/c2cc(OC)c(OC)c(OC)c2)cc1O[Si](C)(C)C(C)(C)C`, the GI50 in experiment [1] was 12.1 µM (inactive); in experiment [2], 7.11 µM (inactive); in experiment [3] it was 5.81 µM (inactive); in [15], 43.5 µM (inactive); in experiment [5], 5.93 µM (inactive); in [16], 15.6 µM (inactive). Also, the GI50 is 8.95 µM (inactive) in [6]; 5.02 µM (inactive) in experiment [7]; 2.27 µM (inactive) in experiment [8]; 5.62 µM (inactive) in [17]; 1.87 µM (inactive) in experiment [19]; 0.0494 µM (active) in experiment [11]. Further, the GI50 was 2.32 µM (inactive) in [12], 7.16 µM (inactive) in [13], 2.03 µM (inactive) in [18] and 3.35 µM (inactive) in experiment [14].

For the molecule `N#C/C(=N/Nc1[nH]cnc1C(N)=O)C(=O)Nc1ccccc1`, the GI50 in experiment [1] was > 100 µM (inactive); in experiment [2], 6.3 µM (inactive); in [3] it was 65.5 µM (inactive); in [15] it was 9.89 µM (inactive); in experiment [4], 28.9 µM (inactive); in experiment [5], 6.18 µM (inactive). Besides, the GI50 is 4.55 µM (inactive) in [6]; 32.3 µM (inactive) in experiment [7]; 12.9 µM (inactive) in [8]; 5.48 µM (inactive) in experiment [9]; 56.8 µM (inactive) in [17]; 7.71 µM (inactive) in experiment [19]. Moreover, the GI50 in [10] was 3.45 µM (inactive); in experiment [11] it was 2.16 µM (inactive); in experiment [13] it was 4.71 µM (inactive); in [18], 24.5 µM (inactive); in experiment [14], 9.18 µM (inactive).

Regarding `CCOC(=O)C(NC(=O)Nc1ccc(Cl)cc1)(OC)C(F)(F)F` (stereo not drawn), the GI50 in [1] was > 100 µM (inactive); in experiment [3] it was 56.5 µM (inactive); in [15] it was 7.45 µM (inactive); in [4], 9.68 µM (inactive); in [6], > 100 µM (inactive); in [8] it was 3.12 µM (inactive). Further, the GI50 in experiment [17] was 37.9 µM (inactive); in experiment [10], 4.66 µM (inactive); in experiment [12], 19.7 µM (inactive); in experiment [13], 41 µM (inactive); in experiment [18] it was > 100 µM (inactive).

Take `O=C1CCC2(c3ccc(F)cc3)Nc3ncncc3N12` (stereo not drawn): the GI50 in experiment [1] is > 10 µM (inactive); in [2] it was > 10 µM (inactive); in [3], 9.93 µM (inactive); in experiment [15], > 10 µM (inactive); in experiment [16], > 10 µM (inactive); in [6], > 10 µM (inactive). For the same molecule, the GI50 in [8], in experiment [9], in experiment [17], in [19], in [10] and in experiment [12] was > 10 µM (inactive) throughout. In addition, the GI50 in [13], in experiment [18] and in experiment [14] was > 10 µM (inactive) each time.

For the molecule `CC1CC/C(=C\c2ccc(F)cc2)C2=C1C(c1ccc(F)cc1)N1C(=O)CSC1=N2` (stereo not drawn), the GI50 was > 100 µM (inactive) in [1]; > 100 µM (inactive) in [2]; 17.7 µM (inactive) in experiment [3]; 4.35 µM (inactive) in experiment [4]; 9.23 µM (inactive) in [6]; > 100 µM (inactive) in experiment [7]. The GI50 in [8] is > 100 µM (inactive); in [9], > 100 µM (inactive); in experiment [17], 58.5 µM (inactive); in [10], 49.9 µM (inactive); in experiment [11], 15.5 µM (inactive); in experiment [12] it was > 100 µM (inactive). Further, the GI50 in experiment [13] and in [14] was > 100 µM (inactive) each time.

Turning to `Cc1c(NC(=O)CSC(=S)N(C)C)c(=O)n(-c2ccccc2)n1C`, the GI50 in experiment [1], in experiment [2], in [3], in [15], in experiment [5] and in [6] was > 100 µM (inactive) throughout. Further, the GI50 in experiment [7], in experiment [8], in experiment [9], in experiment [17], in [19] and in [10] was > 100 µM (inactive) throughout. Further, the GI50 in experiment [11], in experiment [12], in experiment [13] and in [18] was > 100 µM (inactive) in each case.

Consider `CSC(SC)(C(=O)O)c1cc(-c2c(Cl)cccc2Cl)no1`, for which the GI50 in experiment [1] was 28.8 µM (inactive); in experiment [2] it was > 100 µM (inactive); in experiment [3], 54.6 µM (inactive); in experiment [5], 87.5 µM (inactive); in experiment [16], 98.9 µM (inactive); in [6] it was 30.4 µM (inactive). Further, the GI50 in experiment [7] is 31.4 µM (inactive); in [9], 60.8 µM (inactive); in experiment [17], 19.2 µM (inactive); in experiment [19], 28.5 µM (inactive); in experiment [10] it was 26.5 µM (inactive); in [11], 16.3 µM (inactive). Also, the GI50 was > 100 µM (inactive) in experiment [12], 62.1 µM (inactive) in experiment [13], 33 µM (inactive) in [18] and 27.9 µM (inactive) in [14].

As to `COC(O)C(=O)c1ccc2c(c1)CC1(C2)Cc2cc3c(cc2C1=O)CCC3` (stereo not drawn), the GI50 in experiment [1] is 17.4 µM (inactive); in [2], 17.1 µM (inactive); in experiment [3], 19.2 µM (inactive); in experiment [15] it was 19.1 µM (inactive); in [4] it was 9.33 µM (inactive); in experiment [5], 19.5 µM (inactive). Moreover, the GI50 in experiment [6] was 16.1 µM (inactive); in experiment [7], 27.7 µM (inactive); in experiment [8] it was 19.9 µM (inactive); in experiment [9], 16.2 µM (inactive); in experiment [17], 24.5 µM (inactive); in [19], 19 µM (inactive). Further, the GI50 in experiment [10] is 42.6 µM (inactive); in experiment [11] it was 12.3 µM (inactive); in [12] it was 18.1 µM (inactive); in experiment [13], 15.3 µM (inactive); in experiment [18], 17.9 µM (inactive); in [14], 17.9 µM (inactive).
